Values belong to the molecule of their own block, whether it stands above or below them.
Tests used:
E-selectin = assay: Inhibition of E-selectin binding to GlyCAM-1 (ELISA with E-selectin-IgG chimera)
Procedure: (§1) The CAMO2 antibody is diluted to a concentration of 1.6 μg/ml in PBS with 0.1% NaN3, and 100 μl of this solution is dispensed into each well of a 96-well plate. The plate is incubated overnight at 4° C. to allow adsorption of the antibody onto the solid support. The plate is then washed three times with PBS containing 0.1% tween, and blocked with 200 μl/well of a 3% solution of BSA in PBS for 2 hours at room temperature.
(§2) A crude GlyCAM-1 preparation is produced by extracting mouse serum with chloroform/methanol solution, followed by dialysis against PBS. After removing the blocking solution, 100 μl of this solution is dispensed into each well, and the plate is incubated for 1 hour at room temperature.
Chimeric molecules of the invention and more specifically, complexes of E-selection with a secondary antibody and streptavidin-alkaline phosphates are formed as follows:
4 μg/ml E-selectin-IgG chimera
(§3) 2/1000 dilution of biotinylated goat anti-human Fc F(ab')2 (Caltag)
(§4) 2/1000 dilution of streptavidin-alkaline phosphatase (Caltag)
(§5) In PBS with 0.2% BSA and 5% normal rabbit serum
(§6) Assays as per Example 1-3 were used to determine IC50 's for the inhibition of L-, P- or E-selectin binding to GlyCAM-1 for a number of compounds.

L-selectin [1] = assay: Inhibition of L-selectin binding to GlyCAM-1 (ELISA with L-selectin-IgG chimera); conditions: for Interaction of L-selectin with GlyCAM-1: FIG. 6, result in words
Procedure: as §1, §2
Chimeric molecules of the invention and more specifically, complexes of L-selectin with a secondary antibody and streptavidin-alkaline phosphates are formed as follows:
2 mg/ml L-selectin-IgG chimera
as §3, §4
In PBS with 2% BSA and 5% normal rabbit serum
In a separate 96-well plate, 80 μl of serial dilutions of the test inhibitors dissolved in PBS are dispensed into each well. To each inhibitor-containing well is added 80 μl of the selectin-IgG/antibody/streptavidin-alkaline phosphatase complex solution. The plate is then incubated for 30 minutes at 4° C.
The plate containing CAMO2 antibody and captured GlyCAM-1 is washed three times with PBS/0.1% TWEEN detergent, and […] of each selectin complex/inhibitor mixture is transferred to the wells of the GlyCAM-containing plate. This plate is then incubated for 30 minutes at room temperature.
Finally, the solutions are removed from the GlyCAM-1 plate and the plate is washed three times with PBS/0.1% TWEEN detergent. […] of alkaline phosphatase substrate solution (p-nitrophenyl phosphate in ethanolamine/MgCl2) buffer is added to each well to detect the presence of bound selectin complex and the plate is quantified with a 96-well plate reader at 405 nm.

P-selectin = assay: Inhibition of P-selectin binding to GlyCAM-1 (ELISA with P-selectin-IgG chimera)
Procedure: as §1, §2
Chimeric molecules of the invention and more specifically, complexes of P-selection with a secondary antibody and streptavidin-alkaline phosphates are formed as follows:
4 μg/ml P-selectin-IgG chimera
as §3, §4, §5, §6

[2] = test system: lymphocyte attachment to HEV; conditions: literature; cited from earlier work
L-selectin [3] = molecular target: T1, L-selectin (Homo sapiens, UniProt P14151); conditions: without sulfate; cited from earlier work
T1 sequence (P14151 39-372): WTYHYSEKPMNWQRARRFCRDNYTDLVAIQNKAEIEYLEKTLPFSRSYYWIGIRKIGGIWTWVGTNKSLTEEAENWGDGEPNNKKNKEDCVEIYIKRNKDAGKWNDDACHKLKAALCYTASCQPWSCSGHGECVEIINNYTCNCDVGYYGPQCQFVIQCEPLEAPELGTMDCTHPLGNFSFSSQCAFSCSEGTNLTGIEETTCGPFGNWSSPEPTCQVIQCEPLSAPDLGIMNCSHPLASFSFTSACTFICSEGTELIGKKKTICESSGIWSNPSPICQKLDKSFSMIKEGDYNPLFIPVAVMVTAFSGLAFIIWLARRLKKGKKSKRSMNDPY

[4] = test system: L-selectin, P-selectin and E-selectin; assay: Binding of serum GlyCAM-1 to each of the different selectins; conditions: Ig chimeras of the three selectins
Source text: (See FIG. 5). […] These specific conditions are described in detail in Examples 1-3.

Molecule: O=C(O)CN(CCN(CC(=O)O)CC(=O)O)CC(=O)O [EDTA]
Interaction of L-selectin with GlyCAM-1 (L-selectin [1]): inhibited

Molecule: O=P(O)(O)OC[C@H]1OC(O)[C@@H](O)[C@@H](O)[C@@H]1O (stereo partly drawn) [mannose-6-phosphate]
Lymphocyte attachment to HEV [2]: prevent lymphocyte attachment to HEV | Interaction of L-selectin with GlyCAM-1 (L-selectin [1]): inhibited | IC50 (L-selectin [1]; L-selectin): 1.5 mM

Molecule: fucoidan
Lymphocyte attachment to HEV [2]: active | Interaction of L-selectin with GlyCAM-1 (L-selectin [1]): inhibited | IC50 for the inhibition of L-selectin binding to GlyCAM-1 (L-selectin [1]; L-selectin): 0.2 µg/mL | IC50 for the inhibition of P-selectin binding to GlyCAM-1 (P-selectin): 0.02 µg/mL

Molecule: sialyl Lewis^x oligosaccharide [sLe^x]
Affinity for L-selectin (L-selectin [3]): very low affinity

B1: GlyCAM-1: a sulfated, fucosylated and sialylated glycoprotein of about 50 kd now termed GlyCAM-1 (protein, UniProt Q02596 20-151, looked up)
Glycosylation-dependent cell …: LPGSKDELQMKTQPTDAIPAAQSTPTSYTSEESTSSKDLSKEPSIFREELISKDNVVIESTKPENQEAQDGLRSGSSQLEETTRPTTSAATTSEENLTKSSQTVEEELGKIIEGFVTGAEDIISGASRITKS
Binding of serum GlyCAM-1 to the selectins [4]: will bind to each of the different selectins

More lines, now with the values ahead:

IC50 (E-selectin): 4 mM | IC50 (L-selectin [1]; L-selectin): 1.7 mM | IC50 (P-selectin): 0.14 mM
Molecule: 3'-sulfo Lewis a

IC50 (L-selectin [1]; L-selectin): 0.2 mM
Molecule: O=S(=O)(O)OC[C@H]1O[C@@H](O[C@H]2[C@H](O)[C@@H](O)C(O)O[C@@H]2CO)[C@H](O)[C@@H](OS(=O)(=O)O)[C@H]1OS(=O)(=O)O (stereo partly drawn) [3',4',6'-trisulfo lactose]

IC50 (L-selectin [1]; L-selectin): 0.4 mM
Molecule: O=S(=O)(O)OC[C@H]1O[C@@H](O[C@H]2[C@H](O)[C@@H](O)C(O)O[C@@H]2CO)[C@H](O)[C@@H](OS(=O)(=O)O)[C@H]1O (stereo partly drawn) [3',6'-disulfo lactose]

IC50 (E-selectin): 4 mM | IC50 (L-selectin [1]; L-selectin): 3 mM | IC50 (P-selectin): 3 mM
Molecule: CC(=O)N[C@H]1C(O)O[C@H](CO)[C@@H](O[C@@H]2O[C@H](CO)[C@H](O)[C@H](OS(=O)(=O)O)[C@H]2O)[C@@H]1O[C@@H]1O[C@@H](C)[C@@H](O)[C@@H](O)[C@@H]1O (stereo partly drawn) [3'-sulfo Lewis x]

IC50 (L-selectin [1]; L-selectin): 10 mM
Molecule: O=S(=O)(O)OC[C@H]1O[C@@H](O[C@H]2[C@H](O)[C@@H](O)C(O)O[C@@H]2CO)[C@H](O)[C@@H](O)[C@H]1O (stereo partly drawn) [6'-sulfo lactose]

IC50 (L-selectin [1]; L-selectin): 0.002 mM | IC50 (P-selectin): 0.0002 mM
Molecule: O=P(O)(O)O[C@H]1[C@H](OP(=O)(O)O)[C@@H](OP(=O)(O)O)[C@H](OP(=O)(O)O)[C@@H](OP(=O)(O)O)[C@H]1OP(=O)(O)O [phytic acid]

From US5972625A, “Assays for inhibitors of leukocyte adhesion” (The Regents of the University of California, priority 1997, dated 1999)
